Results: patent publication US8835425B2, “Use of selective GABA A α5 negative allosteric modulators for the treatment of central nervous system conditions” (Hoffmann-La Roche Inc., priority 2010, dated 2014)
Like-named read-outs stand apart in the source and are kept apart here.

How the values were obtained:
human GABA A α5β3γ2 [1] = biological target: T1, human GABA A α5β3γ2 (Homo sapiens, UniProt P18507+P31644); experiment: Two-microelectrode voltage clamp, modulation of GABA EC10 response in Xenopus oocytes, α5β3γ2; type: cell-based; design: expressed in transfected cells; host or cells: Xenopus laevis oocytes; details: % change of submaximal (EC10) response to GABA at 30×Ki
Method: (§1) Table 2b. […] Effect at human GABA A α5 receptors: % change of a submaximal (EC10) response to GABA determined at 30×Ki value from the flumazenil binding assay.
(§2) Subtype-selective effects were determined on cloned receptors expressed in Xenopus oocytes. Human recombinant GABA A receptors were expressed in Xenopus laevis oocytes. Current responses were evoked in two-microelectrode voltage-clamp condition by applying an EC10 of GABA before and during the co-application of the test compound. Response amplitudes in the presence of the test compound are expressed as percentage of the amplitudes before drug addition.

Ts65Dn and control mice [2] = experiment: Exploratory activity: hole board; type: in vivo; details: 20 mg/kg p.o. chronic; for ABA index / Crossings / Number of Head-dippings / Rearings / Time exploring holes: hole board
Method: (§3) For mice studies, active pharmaceutical compounds of present invention were formulated in chocolate-milk (Puleva, Barcelona, Spain). Active pharmaceutical compounds of present invention or vehicle were administered p.o. at a dose of 20 mg/kg for six weeks. Their administration was prolonged during the 30 days of the behavioral assessment.
The hole board is a wooden box (32×32×30 cm) with four holes. The floor is divided into nine 10 cm squares. In a single 5 minute trial the number of explorations, the time spent exploring each hole, and overall activity in the apparatus were measured. A repetition index was also calculated (exploration of holes previously explored) as a function of the number of ABA alternations.

Ts65Dn and control mice [3] = experiment: Motor coordination: rotarod; type: in vivo; details: mice of either genotype, 20 mg/kg p.o. chronic
Method: as §3
Motor coordination was evaluated using a rotarod device (Ugo Basile; Comerio, Italy), which consists of a 37-cm-long, 3-cm diameter plastic rod that rotates at different speeds. In a single session, 4 trials with a maximum duration of 60 s each were performed. In the first three tests, the rod was rotated at constant speeds of 5, 25 and 50 rpm, respectively. The last trial consisted of an acceleration cycle, in which the rod rotated progressively faster, and the animal had to adapt to the growing demands of the test. The length of time that each animal stayed on the rotarod was recorded.

human GABA A α2β3γ2 [4] = biological target: T2, human GABA A α2β3γ2 (Homo sapiens, UniProt P18507+P47869); experiment: Two-microelectrode voltage clamp, modulation of GABA EC10 response in Xenopus oocytes, α2β3γ2; type: cell-based; design: expressed in transfected cells; host or cells: Xenopus laevis oocytes; details: % change of EC10 GABA response at 3 μM or at 30×Ki if Ki below 0.1 μM
Method: as §1, §2

human GABA A α5β3γ2 [5] = biological target: T1, human GABA A α5β3γ2; experiment: [3H]flumazenil competition binding, HEK293 cells expressing human α5β3γ2; design: expressed in transfected cells; host or cells: HEK293
Ts65Dn and control mice [6] = experiment: Sensorimotor test battery; type: in vivo; details: 20 mg/kg p.o. chronic; for Auditory startle / Equilibrium aluminium bar / Equilibrium wooden bar / Grip strength / Prehensile reflex / Righting reflex / Traction capacity / Vision: mean score; for effect on sensorimotor abilities: Ts65Dn or control mice
Method: as §3
A battery of sensorimotor tests was performed following the procedure described by Rueda N et al. [Neurosci Leu (2008) 433(1):22-27]. In the visual placing reflex test, cerebellar and vestibular functions were evaluated. […] The response of forepaw extension was scored on a 0-4 scale [4: animal extends the forepaws when placed at the highest height; 3: forepaws extended before touching the surface with vibrissae; 2: forepaws extended after vibrissae touched the surface; 1: forepaws extended after the nose touched the surface; 0: no extension].
To evaluate auditory sensitivity, the startle response to a sudden auditory stimulus was measured. Mice were placed facing the wall of an unfamiliar cage and the auditory stimulus was generated by clapping together two stainless steel forceps (7 cm long). A score (0-3 points) was assigned based on the magnitude of the response: jumping more than 1 cm (3 points); jumping less than 1 cm (2 points); retracting of the ears (Preyer reflex, 1 point); or no response (0 points).
The vibrissa placing reflex was analyzed by noting the reflective reaction to touching the vibrissae with a cotton stick. In three consecutive trials, a score of 1 was assigned to animals that touched the stimulated vibrissae with an ipsilateral paw, and 0 if there was no response. Grip strength was assessed by quantifying the resistance to being separated from a lid of aluminum bars (2 mm), when dragged by the tail (0: no resistance, total loss of grip strength; 1: slight; 2: moderate; 3: active; 4: extremely active resistance, normal grip strength).
In order to evaluate equilibrium, four 20-s trials of balance were performed on an elevated (40 cm high), horizontal (50 cm long) rod. Trials 1 and 2 were performed on a flat wooden rod (9 mm wide); trials 3 and 4 were performed on a cylindrical aluminum rod (1 cm diameter). In each trial, the animals were placed in a marked central zone (10 cm) on the elevated rod. A score of 0 was given if the animal fell within 20 s, 1 if it stayed within the central zone for >20 s, 2 if it left the central zone, and 3 if it reached one of the ends of the bar.
Prehensile reflex (three 5-s trials) was measured as the ability of the animal to remain suspended by the forepaws by grasping an elevated horizontal wire (2 mm in diameter). The maximum possible score of 3 was achieved when the animal remained suspended by the forepaws in all three trials (one point per trial). Traction capacity was scored at the same time by assessing the number of hind limbs that the animal raised to reach the wire (0: none; 1: one limb; 2: two limbs).

human GABA A α2β3γ2 [7] = biological target: T2, human GABA A α2β3γ2; experiment: [3H]flumazenil competition binding, HEK293 cells expressing human α2β3γ2; design: expressed in transfected cells; host or cells: HEK293; details: for hKi α2/hKi α5: binding selectivity ratio

`FC(F)c1ncn2c1Cn1ncnc1-c1cc(Br)ccc1-2` [Compound 8581, 3-Bromo-10-difluoromethyl-9H-imidazo[1,5-a][1,2,4]triazolo[1,5-d][1,4]benzodiazepine] was tested, and the “Efficacy GABA A α5β3γ2” value (human GABA A α5β3γ2 [1]) was −46%, the “hyperactivity (crossings) of Ts65Dn mice in hole board” value (Ts65Dn and control mice [2]; Ts65Dn mice) was “reduced this hyperactivity” and the “normalization of ABA index of Ts65Dn mice” value (Ts65Dn and control mice [2]; Ts65Dn mice) was “normalized”. The ABA index (Ts65Dn and control mice [2]; Ts65Dn mice) was 3.89, the Crossings (Ts65Dn and control mice [2]; Ts65Dn mice) was 106.11 and the “Number of Head-dippings” value (Ts65Dn and control mice [2]; Ts65Dn mice) was 18.22. It also gave a Rearings (Ts65Dn and control mice [2]; Ts65Dn mice) of 20.67, a Time exploring holes (Ts65Dn and control mice [2]; Ts65Dn mice) of 26.28 and an ABA index (Ts65Dn and control mice [2]; control mice) of 2.64. The Crossings (Ts65Dn and control mice [2]; control mice) was 73.27, the “Number of Head-dippings” value (Ts65Dn and control mice [2]; control mice) was 14.82 and the Rearings (Ts65Dn and control mice [2]; control mice) was 17.73. The Time exploring holes (Ts65Dn and control mice [2]; control mice) was 30.43, the “motor coordination in the rotarod” value (Ts65Dn and control mice [3]) was “not modified” and the “Efficacy GABA A α2β3γ2” value (human GABA A α2β3γ2 [4]) was −11%. The Ki (human GABA A α5β3γ2 [5]) was 4.6 nM, the “Latency arrival coat hanging” value (Ts65Dn and control mice [6]; Ts65Dn mice) was 35.44 and the “Latency to fall aluminium bar” value (Ts65Dn and control mice [6]; Ts65Dn mice) was 12.11. For the same compound, the “Latency to fall wooden bar” value (Ts65Dn and control mice [6]; Ts65Dn mice) was 17.77, the “Number of crossings coat hanging” value (Ts65Dn and control mice [6]; Ts65Dn mice) was 3.33 and the Auditory startle (Ts65Dn and control mice [6]; Ts65Dn mice) was 1.33. It also gave an Equilibrium aluminium bar (Ts65Dn and control mice [6]; Ts65Dn mice) of 1.00, an Equilibrium wooden bar (Ts65Dn and control mice [6]; Ts65Dn mice) of 3.55 and a Grip strength (Ts65Dn and control mice [6]; Ts65Dn mice) of 2.00. It also gave a Prehensile reflex (Ts65Dn and control mice [6]; Ts65Dn mice) of 2.67, a Righting reflex (Ts65Dn and control mice [6]; Ts65Dn mice) of 3.00 and a Traction capacity (Ts65Dn and control mice [6]; Ts65Dn mice) of 1.67. For the same compound, the Vision (Ts65Dn and control mice [6]; Ts65Dn mice) was 7.67, the “effect on sensorimotor abilities” value (Ts65Dn and control mice [6]) was “did not modify any of the sensorimotor abilities tested” and the “Latency arrival coat hanging” value (Ts65Dn and control mice [6]; control mice) was 46.45. The “Latency to fall aluminium bar” value (Ts65Dn and control mice [6]; control mice) was 14.73, the “Latency to fall wooden bar” value (Ts65Dn and control mice [6]; control mice) was 20.00 and the “Number of crossings coat hanging” value (Ts65Dn and control mice [6]; control mice) was 2.64. The Auditory startle (Ts65Dn and control mice [6]; control mice) was 1.00, the Equilibrium aluminium bar (Ts65Dn and control mice [6]; control mice) was 1.36 and the Equilibrium wooden bar (Ts65Dn and control mice [6]; control mice) was 2.8. The Grip strength (Ts65Dn and control mice [6]; control mice) was 1.55, the Prehensile reflex (Ts65Dn and control mice [6]; control mice) was 2.45 and the Righting reflex (Ts65Dn and control mice [6]; control mice) was 3.00. For the same compound, the Traction capacity (Ts65Dn and control mice [6]; control mice) was 1.82, the Vision (Ts65Dn and control mice [6]; control mice) was 7.64 and the Ki (human GABA A α2β3γ2 [7]; [3H]flumazenil competition, human α2β3γ2, read-out: hKi α2) was 185 nM. For the same compound, the “hKi α2/hKi α5” value (human GABA A α2β3γ2 [7]) was 40.
With `Cc1onc(-c2ccc(F)cc2)c1COc1ccc(C(=O)N2CCS(=O)(=O)CC2)cn1` [Compound R1, (1,1-Dioxo-1,6-thiomorpholin-4-yl)-{6-[3-(4-fluoro-phenyl)-5-methyl-isoxazol-4-ylmethoxy]-pyridin-3-yl}-methanone] the “Efficacy GABA A α5β3γ2” value (human GABA A α5β3γ2 [1]) was −39%, the “hyperactivity (crossings) of Ts65Dn mice in hole board” value (Ts65Dn and control mice [2]; Ts65Dn mice) was “reduced this hyperactivity” and the ABA index (Ts65Dn and control mice [2]; Ts65Dn mice) was 4.25. The Crossings (Ts65Dn and control mice [2]; Ts65Dn mice) was 93.19, the “Number of Head-dippings” value (Ts65Dn and control mice [2]; Ts65Dn mice) was 20.50 and the Rearings (Ts65Dn and control mice [2]; Ts65Dn mice) was 13.19. It also gave a Time exploring holes (Ts65Dn and control mice [2]; Ts65Dn mice) of 37.58, an ABA index (Ts65Dn and control mice [2]; control mice) of 4.06 and a Crossings (Ts65Dn and control mice [2]; control mice) of 72.13. The “Number of Head-dippings” value (Ts65Dn and control mice [2]; control mice) was 16.13, the Rearings (Ts65Dn and control mice [2]; control mice) was 13.86 and the Time exploring holes (Ts65Dn and control mice [2]; control mice) was 28.28. For the same compound, the “motor coordination in the rotarod” value (Ts65Dn and control mice [3]) was “not modified”, the “Efficacy GABA A α2β3γ2” value (human GABA A α2β3γ2 [4]) was −6% and the Ki (human GABA A α5β3γ2 [5]; [3H]flumazenil competition, human α5β3γ2, read-out: hKi α5) was 4.7 nM. For the same compound, the “Latency arrival coat hanging” value (Ts65Dn and control mice [6]; Ts65Dn mice) was 37.37, the “Latency to fall aluminium bar” value (Ts65Dn and control mice [6]; Ts65Dn mice) was 13.71 and the “Latency to fall wooden bar” value (Ts65Dn and control mice [6]; Ts65Dn mice) was 20.00. The “Number of crossings coat hanging” value (Ts65Dn and control mice [6]; Ts65Dn mice) was 3.19, the Auditory startle (Ts65Dn and control mice [6]; Ts65Dn mice) was 1.31 and the Equilibrium aluminium bar (Ts65Dn and control mice [6]; Ts65Dn mice) was 1.13. It also gave an Equilibrium wooden bar (Ts65Dn and control mice [6]; Ts65Dn mice) of 3.19, a Grip strength (Ts65Dn and control mice [6]; Ts65Dn mice) of 1.75 and a Prehensile reflex (Ts65Dn and control mice [6]; Ts65Dn mice) of 2.75. It also gave a Righting reflex (Ts65Dn and control mice [6]; Ts65Dn mice) of 3.00, a Traction capacity (Ts65Dn and control mice [6]; Ts65Dn mice) of 2.50 and a Vision (Ts65Dn and control mice [6]; Ts65Dn mice) of 9.19. For the same compound, the “effect on sensorimotor abilities” value (Ts65Dn and control mice [6]) was “did not modify any of the sensorimotor abilities tested”, the “Latency arrival coat hanging” value (Ts65Dn and control mice [6]; control mice) was 30.93 and the “Latency to fall aluminium bar” value (Ts65Dn and control mice [6]; control mice) was 11.16. For the same compound, the “Latency to fall wooden bar” value (Ts65Dn and control mice [6]; control mice) was 20.00, the “Number of crossings coat hanging” value (Ts65Dn and control mice [6]; control mice) was 2.73 and the Auditory startle (Ts65Dn and control mice [6]; control mice) was 1.00. For the same compound, the Equilibrium aluminium bar (Ts65Dn and control mice [6]; control mice) was 0.80, the Equilibrium wooden bar (Ts65Dn and control mice [6]; control mice) was 2.53 and the Grip strength (Ts65Dn and control mice [6]; control mice) was 2.2. The Prehensile reflex (Ts65Dn and control mice [6]; control mice) was 2.53, the Righting reflex (Ts65Dn and control mice [6]; control mice) was 3.00 and the Traction capacity (Ts65Dn and control mice [6]; control mice) was 1.80. For the same compound, the Vision (Ts65Dn and control mice [6]; control mice) was 8.40, the Ki (human GABA A α2β3γ2 [7]) was 502 nM and the “hKi α2/hKi α5” value (human GABA A α2β3γ2 [7]) was 107.
